Common to all, as to assay type: in vivo, rat
The test system of test [1] is morphine self-administration. The test can be described thus: intravenous morphine self-administration. Conditions: 18-methoxycoronaridine 1 mg/kg i.p., dextromethorphan 5 mg/kg s.c. On the procedure:
Dextromethorphan hydrobromide (5 mg/kg; Sigma/RBI, St. Louis, Mo.) was dissolved in saline and injected subcutaneously 20 minutes before testing. Mecamylamine hydrochloride (1 mg/kg; Sigma/RBI, St. Louis, Mo.) was dissolved in physiological saline and injected intraperitoneally 30 minutes before testing. All rats received two injections. For rats that received a single drug, half of them also received the appropriate saline/vehicle injection corresponding to each of the other two drugs.
Naive female Long-Evans derived rats (250 g; Charles River, N.Y.) were maintained on a normal 12 h light cycle (lights on at 7:00 a.m., lights off at 7:00 p.m.). For all experiments the “Principles of Laboratory Animal Care” (NIH publication No. 85-23, revised 1985, which is hereby incorporated by reference) were followed.
The intravenous self-administration procedure described in Glick et al., “18-MC Reduces Methamphetamine and Nicotine Self-administration in Rats,” NeuroReport 11:2013-2015 (2000) (“Glick I”), which is hereby incorporated by reference, was employed. Briefly, responses on either of two levers (mounted 15 cm apart on the front wall of each operant test cage) were recorded on an IBM compatible computer with a Med Associates, Inc. interface. The intravenous self-administration system consisted of polyethylene-silicone cannulas constructed according to the design of Weeks, “Long-term Intravenous Infusion,” pp. 155-168 in Myers (ed.), Methods in Psychobiology, Vol. 2, New York: Academic Press (1972) (“Weeks”), which is hereby incorporated by reference; Instech harnesses and swivels; and Harvard Apparatus infusion pumps (#55-2222). Shaping of the bar-press response was initially accomplished by training rats to bar-press for water. Cannulas were then implanted in the external jugular vein according to procedures described in Weeks, which is hereby incorporated by reference. Self-administration testing began with a 16-h nocturnal session followed by daily 1-h sessions, 5 days (Monday-Friday) a week. A lever-press response produced a 10 μl infusion of drug solution (0.01 mg of morphine sulfate) in about 0.2 s or a 50 μl infusion of drug solution (0.025 mg of methamphetamine sulfate) in about 1 s. Since all rats generally weighed 250±20 g, each response delivered approximately 0.04 mg/kg of morphine or 0.1 mg/kg of methamphetamine. Experiments to assess the effects of experimental treatments were begun when baseline self-administration rates stabilized (≦10% variation from one day to the next across 5 days), usually after 2 weeks of testing.
Each data point represents the mean (±S.E.M.) percent of baseline of 6-8 rats. Significant differences between baseline and treatment are indicated by an asterisk (paired t-test, P<0.01-0.001).
Each data point represents the mean (±S.E.M.) percent of baseline of 5-8 rats. Significant differences between baseline and treatment are indicated by an asterisk (paired t-test), P<0.05-0.01).

Test [2] deals with nicotine self-administration. The test can be described thus: nicotine self-administration. To be noted: Example 7, FIGS. 11-12: mecamylamine 0.1 mg/kg i.p., 18-methoxycoronaridine 0.5 mg/kg i.p., dextromethorphan 0.5 mg/kg s.c., bupropion 5 mg/kg i.p.; 5-8 rats.
Test [3] has as its system methamphetamine self-administration. As to the kind of experiment: intravenous methamphetamine self-administration.
[4] abbreviates: Example 6, FIG. 8: mecamylamine 1 mg/kg i.p., bupropion 5 mg/kg i.p., 5-8 rats.
Where [5] appears, read: Example 6, FIG. 9: mecamylamine 1 mg/kg i.p., 18-methoxycoronaridine 5 mg/kg i.p., dextromethorphan 10 mg/kg s.c., bupropion 10 mg/kg i.p., 5-9 rats.

Regarding `CC(NC(C)(C)C)C(=O)c1cccc(Cl)c1` (stereo not drawn) [bupropion, m-chloro-α-tert-butylaminopropiophenone], the “effect on morphine self-administration (percent of baseline)” value in test [1] (setting [4]) was “none of the drugs administered alone, significantly decreased”. Moreover, the “effect on nicotine self-administration (percent of baseline)” value in test [2] is listed as “none of the drugs administered alone, significantly decreased”. Also, the “effect on methamphetamine self-administration (percent of baseline)” value in test [3] (setting [5]) was “none of the drugs administered alone, significantly decreased”.
As for `COc1ccc2c(c1)[C@]13CCCC[C@@H]1[C@H](C2)N(C)CC3` [dextromethorphan], the “effect on morphine self-administration (percent of baseline)” value in test [1] (Example 5, FIG. 5: mecamylamine 1 mg/kg i.p., 6-8 rats) is given as “none of the drugs administered alone, significantly decreased”; in test [1] (setting [4]) it was “none of the drugs administered alone, significantly decreased”. Moreover, in test [2], the “effect on nicotine self-administration (percent of baseline)” value is “none of the drugs administered alone, significantly decreased”. The “effect on methamphetamine self-administration (percent of baseline)” value is listed as “none of the drugs administered alone, significantly decreased” in test [3] (Example 5, FIG. 6: mecamylamine 1 mg/kg i.p., 18-methoxycoronaridine 2 mg/kg i.p., dextromethorphan 5 mg/kg s.c., 6-7 rats) and “none of the drugs administered alone, significantly decreased” in test [3] (setting [5]).

Source of the values: US6780871B2, “Methods and compositions for treating addiction disorders” (Albany Medical College, priority 2001, dated 2004).
